Data as given in publication PMC11071649, “Synthesis and Selective Anticancer Activity Evaluation of 2-phenylacrylonitrile Derivatives as Tubulin Inhibitors” (Current Medicinal Chemistry, 2024).

Experiments:
Format in all cases: cell-based, human
[1] = system: HCT116 colectal cancer cell; test: MTT anti-proliferative assay, HCT116; settings: for IC50: MTT, 48 h, read-out: IC50 HCT-116
Method in brief: (§1)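 Anti-proliferative effect is measured with the MTT assay, which reports inhibition of net cell growth. Cells come from ATCC, are maintained in DMEM with FBS and are seeded into 96-well plates before treatment.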

[2] = system: MCF-10A normal breast cell; test: MTT assay, MCF-10A normal cells; settings: 48 h
Method in brief: as §1

A549 lung cancer cell = test: MTT anti-proliferative assay, A549; settings: MTT, 48 h
Method in brief: as §1

AGS gastric cancer cell = test: MTT anti-proliferative assay, AGS; settings: for IC50: MTT, 48 h
Method in brief: as §1

[3] = system: HeLa cervical cancer cell; test: MTT anti-proliferative assay, HeLa; settings: MTT, 48 h
Method in brief: as §1

MCF-7 breast cancer cell = test: MTT anti-proliferative assay, MCF-7; settings: MTT, 48 h
Method in brief: as §1

HepG2 hepatoma cell = test: MTT anti-proliferative assay, HepG2; settings: MTT, 48 h; read-out: IC50 HepG-2
Method in brief: as §1

[4] = system: SGC-7901 early differentiation gastric cancer cell; test: MTT anti-proliferative assay, SGC-7901; settings: for IC50: MTT, 48 h
Method in brief: as §1

[5] = system: Raji B lymphoblastoid cell; test: MTT anti-proliferative assay, Raji; settings: for IC50: MTT, 48 h, read-out: IC50 Raji
Method in brief: as §1

[6] = system: BEL-7402 liver cancer cell; test: MTT anti-proliferative assay, BEL-7402; settings: for IC50: MTT, 48 h
Method in brief: as §1

[7] = system: MGC-803 late stage differentiation gastric cancer cell; test: MTT anti-proliferative assay, MGC-803; settings: for IC50: MTT, 48 h
Method in brief: as §1

[8] = system: diffuse large B-cell lymphoma SU-DHL-10 cell; test: MTT anti-proliferative assay, SU-DHL-10; settings: for IC50: MTT, 48 h, read-out: IC50 SU-DHL-10
Method in brief: as §1

L-02 normal liver cell = test: MTT assay, L-02 normal cells; settings: 48 h
Method in brief: as §1

Row | Structure (SMILES) | SI (selectivity index), IC50 (L-02)/IC50 (HCT-116) [1] | IC50 [1] [µM] | IC50 [2] [µM] | IC50 (A549 lung cancer cell) [µM] | SI (selectivity index), IC50 (L-02)/IC50 (AGS) (AGS gastric cancer cell) | IC50 (AGS gastric cancer cell) [µM] | IC50 [3] [µM] | IC50 (MCF-7 breast cancer cell) [µM] | IC50 (HepG2 hepatoma cell) [µM] | SI (selectivity index), IC50 (L-02)/IC50 (SGC-7901) [4] | IC50 [4] [µM] | SI (selectivity index), IC50 (L-02)/IC50 (Raji) [5] | IC50 [5] [µM] | SI (selectivity index), IC50 (L-02)/IC50 (BEL-7402) [6] | IC50 [6] [µM] | SI (selectivity index), IC50 (L-02)/IC50 (MGC-803) [7] | IC50 [7] [µM] | SI (selectivity index), IC50 (L-02)/IC50 (SU-DHL-10) [8] | IC50 [8] [µM] | IC50 (L-02 normal liver cell) [µM]
1 | COc1ccc(/C(C#N)=C/c2cc(OC)c(OC)c(OC)c2)cc1 [Compound 1e2a] | > 6.5 | 7.2 ± 0.6 | 28.1 ± 3.6 | > 100 | > 2.8 | 18.4 ± 1.9 | > 100 | 36.9 ± 3.6 | > 100 | > 1.2 | 38.2 ± 9 | > 4.0 | 11.6 ± 4.9 | > 1.0 | 46.8 ± 5.1 | > 5.7 | 8.3 ± 1.2 | > 1.7 | 27.2 ± 5.3 | 47.5 ± 12.4
2 | COc1ccc(/C(C#N)=C/c2ccc(N(C)C)cc2)cc1 [Compound 1e2b] | – | > 100 | > 100 | > 100 | – | > 100 | > 100 | > 100 | > 100 | > 4.4 | 22.6 | > 7.8 | 12.7 ± 3.8 | – | > 100 | > 6.6 | 15.1 ± 1.2 | – | > 100 | > 100
3 | CCN(CC)c1ccc(/C=C(\C#N)c2ccc(OC)cc2)cc1 [Compound 1e2c] | – | > 100 | > 100 | > 100 | – | > 100 | > 100 | > 100 | > 100 | – | > 100 | > 5.1 | 19.3 ± 0.5 | – | > 100 | – | > 100 | > 1.6 | 62.3 ± 9.6 | > 100
4 | CN(C)c1ccc(/C=C(\C#N)c2ccc(C(F)(F)F)cc2)cc1 [Compound 1f2a] | – | > 100 | > 100 | > 100 | – | > 100 | > 100 | > 100 | > 100 | – | > 100 | – | > 100 | – | > 100 | – | > 100 | – | > 100 | > 100
5 | CCN(CC)c1ccc(/C=C(\C#N)c2ccc(C(F)(F)F)cc2)cc1 [Compound 1f2b] | > 3.0 | 33 ± 5.8 | > 100 | > 100 | – | > 100 | > 100 | > 100 | > 100 | – | > 100 | – | > 100 | – | > 100 | – | > 100 | – | > 100 | > 100
6 | N#C/C(=C\c1ccccc1)c1ccc(C(F)(F)F)cc1 [Compound 1f2c] | – | > 100 | > 100 | > 100 | – | > 100 | > 100 | > 100 | > 100 | – | > 100 | – | > 100 | – | > 100 | – | > 100 | – | > 100 | > 100
7 | N#C/C(=C\c1ccc(F)cc1)c1ccc(C(F)(F)F)cc1 [Compound 1f2d] | – | > 100 | > 100 | > 100 | – | > 100 | > 100 | > 100 | > 100 | – | > 100 | – | > 100 | – | > 100 | > 1.9 | 51.9 ± 2.1 | – | > 100 | > 100
8 | N#C/C(=C\c1ccc(Cl)cc1)c1ccc(C(F)(F)F)cc1 [Compound 1f2e] | – | > 100 | > 100 | > 100 | – | > 100 | > 100 | > 100 | > 100 | – | > 100 | – | > 100 | – | > 100 | – | > 100 | – | > 100 | > 100
9 | N#C/C(=C\c1ccc(Br)cc1)c1ccc(C(F)(F)F)cc1 [Compound 1f2f] | – | > 100 | > 100 | > 100 | – | > 100 | > 100 | > 100 | > 100 | – | > 100 | – | > 100 | – | > 100 | – | > 100 | – | > 100 | > 100
